This assay concerns C2C12 cells. Description: Alkaline Phosphatase (ALP) functional activity assay in C2C12 cells. The settings on record: normalized to DMSO treatment; for activation at 0.5 µM: Mus musculus, C2C12, 144 h. Type of assay: cell-based, Mouse. The protocol: Alkaline Phosphatase (ALP) Functional Activity Assay: C2C12 cells were plated into 12-well plates with 7,000 cells/well in 1 mL growth media. […] 1, 2, 3, or 4 in 0.1% DMSO was added (500 nM). Half the media was exchanged with fresh media containing compound every 48 hrs. After 6 days, media was removed, ALP Lysis Buffer (10 mM Tris-HCl pH 8.0, 1 mM MgCl2, and 1% Triton X100) added, and cell lysate obtained (10 min incubation at RT) by centrifugation (5 min at 3500× g at 4° C.). Para-nitrophenol phosphate (pNPP) (2 mg/mL) was incubated with 50 μl cell lysate (10 mins, 37° C.). After addition of […] 0.02 N NaOH, absorbance OD405 was measured. Protein concentration was determined by Bradford protein assay. Results of ALP activity were plotted as nM pNP hydrolyzed/mg total protein. After normalizing control samples (i.e., DMSO-treated samples) to one-fold, the fold-changes were plotted to indicate the relative ALP activity. […] This protocol was applied to hMSC and E15 cells as well.

[1] abbreviates: compounds of Formula II or IV, absence of matrix.
The mark [2] stands for this setting: compounds of Formula II or IV, presence of calcium phosphate matrix.
Where [3] appears, read: compounds of Formula VI, absence of matrix.
The mark [4] stands for this setting: compounds of Formula VI, presence of calcium phosphate matrix.

A value given as a limit tells only on which side of the number the result lay.

In the case of “cis-1-acetyl-4-(phenylamino)-1,2,3,4-tetrahydroquinoline [Compound 20]”, the “ALP activity −matrix” value under setting [1] is given as “− (<5%)”. Also, the “ALP activity +matrix” value under setting [2] is “++ (50-100%)”.
As to `CC(=O)N1c2ccc(F)cc2[C@@H](Nc2ccc(F)cc2)C[C@@H]1C` (relative stereo) [Compound 22, trans-1-acetyl-2-methyl-6-fluoro-N-(p-fluorophenyl)-1,2,3,4-tetrahydroquinolin-4-amine], the activation at 0.5 µM is, setting by setting: under setting [1], 5 to 50%; under setting [2], less than 5%.
As for `COc1ccc(C(=O)N2c3ccc(F)cc3[C@@H](N(C(=O)c3ccc(OC)cc3)c3ccc(F)cc3)C[C@@H]2C)cc1` (relative stereo) [Compound 30, trans-1-(p-methoxybenzoyl)-2-methyl-6-fluoro-N-(p-fluorophenyl)-N-(p-methoxybenzoyl)-1,2,3,4-tetrahydroquinolin-4-amine], the activation at 0.5 µM was less than 5% under setting [1] and 5 to 50% under setting [2].
In the case of `Cc1ccc(N[C@@H]2C[C@H](C)N(C(=O)c3ccccc3)c3ccc(C)cc32)cc1` (relative stereo) [Compound 18, cis-1-benzoyl-2,6-dimethyl-N-(p-methylphenyl)-1,2,3,4-tetrahydroquinolin-4-amine], the activation at 0.5 µM is more than 100% under setting [1] and less than 5% under setting [2].
Consider `C[C@H]1C[C@@H](Nc2ccccc2)c2ccccc2N1` (relative stereo) [Compound 7, cis-2-methyl-N-phenyl-1,2,3,4-tetrahydroquinolin-4-amine], for which the activation at 0.5 µM is, setting by setting: under setting [1], 5 to 50%; under setting [2], 5 to 50%.
In the case of `CC(=O)N1c2ccc(F)cc2[C@H](Nc2ccc(F)cc2)C[C@@H]1C` (relative stereo) [Compound 21, cis-1-acetyl-2-methyl-6-fluoro-N-(p-fluorophenyl)-1,2,3,4-tetrahydroquinolin-4-amine], the activation at 0.5 µM reads like this: under setting [1], 5 to 50%; under setting [2], 5 to 50%.
For the compound `CC(=O)N1c2ccc(C)cc2[C@@H](Nc2ccc(C)cc2)C[C@@H]1C` (relative stereo) [Compound 13, trans-1-acetyl-2,6-dimethyl-N-(p-methylphenyl)-1,2,3,4-tetrahydroquinolin-4-amine], the activation at 0.5 µM is more than 100% under setting [1] and less than 5% under setting [2].
On to `O=C(C=CC1CCCCC1)C1CCCC(=CC2CCCCC2)C1=O` (stereo not drawn) [Compound 64, 2-(3-Cyclohexylacryloyl)-6-(cyclohexylmethylene)cyclohexanone], for which the activation at 0.5 µM reads like this: under setting [3], 5 to 50%; under setting [4], 5 to 50%.
As for `NCCCCC(N)C(=O)Oc1ccc(C=CC(=O)CC(=O)C=Cc2ccc(OC(=O)C(N)CCCCN)cc2)cc1` [Compound 69, (2S,2′S)—O,O′-(3,5-Dioxohepta-1,6-diene-1,7-diyl)bis(4,1-phenylene) bis(2,6-bis-amino)hexanoate], under setting [3], the “ALP activity −matrix” value is given as “− (<5%)”. Moreover, the “ALP activity +matrix” value under setting [4] is recorded as “+ (5-50%)”.
`COc1cc(N(C)C)ccc1C=CC(=O)C=C(O)C=Cc1ccc(N(C)C)cc1OC` [Compound 39, 1,7-Bis(4-dimethylamino-2-methoxyphenyl). 5-hydroxy-hepta-1,4,6-trien-3-one]: the “ALP activity −matrix” value under setting [3] is on record as “+++ (>100%)”. Besides, the “ALP activity +matrix” value under setting [4] was “− (<5%)”.
As for `O=C(CCc1ccc(O)cc1)C1CCCC(Cc2ccc(O)cc2)C1=O` (stereo not drawn) [Compound 62, 2-(4-Hydroxybenzyl)-6-(3-(4-hydroxyphenyl)propanoyl)cyclohexanone], the activation at 0.5 µM is, setting by setting: under setting [3], less than 5%; under setting [4], 5 to 50%.
`COc1ccc(N[C@@H]2C[C@H](C)Nc3ccc(OC)cc32)cc1` (relative stereo) [Compound 11, cis-2-methyl-6-methoxy-N-(p-methoxyphenyl)-1,2,3,4-tetrahydroquinolin-4-amine]: the activation at 0.5 µM was less than 5% under setting [1] and 50 to 100% under setting [2].
As for `COc1cc(N(C)C)ccc1C=CC(=O)C1CCCC(=Cc2ccc(N(C)C)cc2OC)C1=O` (stereo not drawn) [Compound 59, 2-(4-N,N-dimethylamino-2-methoxybenzylidene)-6-(3-(4-N,N-dimethylamino-2-methoxyphenyl)acryloyl)cyclohexanone], the “ALP activity −matrix” value under setting [3] is “− (<5%)”. Besides, the “ALP activity +matrix” value under setting [4] was “++ (50-100%)”.
As to `C[C@H]1C[C@@H](Nc2ccc(F)cc2)c2cc(F)ccc2N1C(=O)c1ccccc1` (relative stereo) [Compound 23, cis-1-benzoyl-2-methyl-6-fluoro-N-(p-fluorophenyl)-1,2,3,4-tetrahydroquinolin-4-amine], the activation at 0.5 µM runs as follows: under setting [1], 50 to 100%; under setting [2], 5 to 50%.
`Cc1ccc(N[C@H]2C[C@H](C)Nc3ccc(C)cc32)cc1` (relative stereo) [Compound 6, trans-2,6-dimethyl-N-(p-methylphenyl)-1,2,3,4-tetrahydroquinolin-4-amine]: the activation at 0.5 µM under setting [1] fell in the range of 50 to 100% and the activation at 0.5 µM under setting [2] was less than 5%.
Regarding `C[C@H]1C[C@H](Nc2ccccc2)c2ccccc2N1` (relative stereo) [Compound 8, trans-2-methyl-N-phenyl-1,2,3,4-tetrahydroquinolin-4-amine], the activation at 0.5 µM is, setting by setting: under setting [1], 5 to 50%; under setting [2], 5 to 50%.
As to `O=C(C=C(O)CCc1ccc(O)cc1)CCc1ccc(O)cc1` [Compound 63, 5-Hydroxy-1,7-bis(4-hydroxyphenyl)hept-4-en-3-one], the activation at 0.5 µM runs as follows: under setting [3], 5 to 50%; under setting [4], 50 to 100%.
On to `COc1ccc(C(=O)N2c3ccc(F)cc3[C@@H](Nc3ccc(F)cc3)C[C@@H]2C)cc1` (relative stereo) [Compound 26, trans-1-(p-methoxybenzoyl)-2-methyl-6-fluoro-N-(p-fluorophenyl)-1,2,3,4-tetrahydroquinolin-4-amine], for which the activation at 0.5 µM under setting [1] is less than 5% and the activation at 0.5 µM under setting [2] lay in the range of 50 to 100%.
On the same counts, the results for `Cc1ccc(N[C@H]2C[C@H](C)N(C(=O)c3ccccc3)c3ccc(C)cc32)cc1` (relative stereo) [Compound 19, trans-1-benzoyl-2,6-dimethyl-N-(p-methylphenyl)-1,2,3,4-tetrahydroquinolin-4-amine] are less than 5% and less than 5%.
`COc1cc(C=CC(=O)C=C(O)C=Cc2ccc(OC(=O)[C@@H](N)C(C)C)c(OC)c2)ccc1OC(=O)[C@@H](N)C(C)C` [Compound 71, (2S,2′S)—O,O′-(3-hydroxy-5-oxohepta-1,3,6-triene-1,7-diyl)bis(2-methoxy-4,1-phenylene) bis(2-amino-3-methylbutanoate)]: the “ALP activity −matrix” value under setting [3] was “+ (5-50%)”. Besides, the “ALP activity +matrix” value under setting [4] was “+ (5-50%)”.
Consider `Cc1ccc(N(C(=O)c2ccccc2)[C@H]2C[C@H](C)N(C(=O)c3ccccc3)c3ccc(C)cc32)cc1` (relative stereo) [Compound 28, trans-1-benzoyl-2,6-dimethyl-N-(p-methylphenyl)-N-benzoyl-1,2,3,4-tetrahydroquinolin-4-amine], for which the activation at 0.5 µM is less than 5% under setting [1] and less than 5% under setting [2].
Consider `Cc1ccc(N[C@@H]2C[C@H](C)Nc3ccc(C)cc32)cc1` (relative stereo) [Compound 5, cis-2,6-dimethyl-N-(p-methylphenyl)-1,2,3,4-tetrahydroquinolin-4-amine], for which the activation at 0.5 µM was in the range of 5 to 50% under setting [1] and 5 to 50% under setting [2].
Take `COc1cc(O)ccc1C=CC(=O)C=C(O)C=Cc1ccc(O)cc1OC` [Compound 49, 5-Hydroxy-1,7-bis-(4-hydroxy-2-methoxyphenyl)-hepta-1,4,6-trien-3-one]: the activation at 0.5 µM under setting [3] was 50 to 100% and the activation at 0.5 µM under setting [4] is less than 5%.
As to `C[C@H]1C[C@H](N(C(=O)c2ccccc2)c2ccc(F)cc2)c2cc(F)ccc2N1C(=O)c1ccccc1` (relative stereo) [Compound 29, trans-1-benzoyl-2-methyl-6-fluoro-N-(p-fluorophenyl)-N-benzoyl-1,2,3,4-tetrahydroquinolin-4-amine], the activation at 0.5 µM is, setting by setting: under setting [1], more than 100%; under setting [2], less than 5%.
Regarding `CN(C)c1ccc(C=CC(=O)C2CCCC(=Cc3ccc(N(C)C)cc3)C2=O)cc1` (stereo not drawn) [Compound 57, 2-(4-N,N-dimethylaminobenzylidene)-6-(3-(4-N,N-dimethylaminophenyl)acryloyl)cyclohexanone], the “ALP activity −matrix” value under setting [3] was “− (<5%)”. The “ALP activity +matrix” value under setting [4] is listed as “++ (50-100%)”.
Take `COc1ccc(C=CC(=O)C=C(O)C=Cc2ccc(OC)c(O)c2)cc1O` [Compound 48, 5-Hydroxy-1,7-bis-(3-hydroxy-4-methoxyphenyl)-hepta-1,4,6-trien-3-one]: the activation at 0.5 µM is, setting by setting: under setting [3], more than 100%; under setting [4], less than 5%.
In the case of “(2S,2′S)4-(3-(3-(4-(2-amino-3-methylbutanoyloxy)-3-methoxybenzylidene)-2-oxocyclohexyl)-3-oxoprop-1-enyl)-2-methoxyphenyl bis(2-(tert-butoxycarbonylamino)-3-methylbutanoate) [Compound 78]”, the “ALP activity −matrix” value under setting [3] is reported as “− (<5%)”. Also, the “ALP activity +matrix” value under setting [4] is “+ (5-50%)”.

For the origin of these results see patent publication US11596716B2, “Compounds and matrices for use in bone growth and repair” (Human BioMolecular Research Institute, priority 2013, dated 2023).
